Laboratory results taken from patent US20120128630A1, “1-(6 MEMBERS AZO-HETEROCYCLIC)-PYRROLIN-2-ONE COMPOUNDS AS INHIBITORS OF HEPATITIS C NS5B POLYMERASE, THE PHARAMACEUTICAL COMPOSITION THEREOF AND THEIR THERAPEUTIC USE” (priority 2009, published 2012).

What was measured:
HCV NS5B genotype 1b = biological target: T1, HCV NS5B genotype 1b (Hepatitis C virus genotype 1b, UniProt Q9WMX2); assay: 3D-SCREEN assay (NS5B 3D-Screen platform, luciferase reporter gene); assay type: cell-based; conditions: EC50_3DS_NS5B
T1 construct: The protein was expressed with a 21 amino acid C-terminal deletion to remove transmembrane domain; expressed in transfected cells; host or cells: Huh-7
From the text: cDNA encoding HCV NS5B genotype 1b, was cloned in frame with Gal4-DNA Binding Domain. The protein was expressed with a 21 amino acid C-terminal deletion to remove transmembrane domain. Expression of NS5BΔ21/Gal4 DBD fusion protein was under control of SV40 early promoter. 3D-Sensor peptide was cloned in frame with VP16 activation domain. Expression of 3D-Sensor/VP16 AD fusion protein was under control of CMV promoter. Expression of the firefly luciferase reporter gene was inducible by the [Target protein/conformation sensitive peptide/VP16AD] complex.
It is a single-target, cell based assay. Briefly, expression of a reporter gene depends on the interaction of a short peptide, thereafter named 3D-Sensor, and native conformation of the target protein. Whenever the conformation of the target protein is modified, interaction between 3D-sensor and target protein is disrupted and reporter gene is not expressed anymore. Conformation modifiers are identified by loss of expression of reporter gene. NS5B 3D-Screen platform was generated in Huh-7 cell lines by transient transfection of three expression vectors encoding respectively
(i) HCV NS5BΔ21/Gal4-DBD fusion protein
(ii) the 3D-sensor peptide I4/VP16 fusion protein
(iii) the firefly luciferase reporter gene
Huh-7 cells were dissociated the day before transfection and seeded in T175 flasks at a density of 10^7 cells in 30 ml culture medium. Equimolar ratios of vectors were transfected in cell according to optimized jetPEI transfection protocol (PolyPlus Transfection, Illkirch, France) and 10 μg total DNA/10^6 cells. Transfection was performed for 2 hours at 37° C. and 5% CO2 in a humidified atmosphere. After two hours cells were dissociated and seeded in 96 wells plates at a density of 25,000 cells per well and 90 μl culture medium. 10 μl of compounds to be tested were added 2 hours after seeding. Final concentration of DMSO was 1%. Cells were incubated in the presence of compounds for 24 hours after which expression of firefly luciferase reporter gene was quantified. Briefly, culture medium was removed and cells were lysed by addition of 100 μl of lysis buffer containing 125 mM Tris Phosphate ph 7.8, 10 mM EDTA, 5 mM DTT, 50% glycerol and 5% Triton. Plates were vortexed 10 min at 1300 rpm. Cell lysat was transferred in OpaqueWhite Assay 96 well Flat Bottom plates. 100 μl of luciferin solution 1× were added to each well. Luciferin solution contained 40 mM Tris Phosphate ph 7.8, 0.2 mM EDTA, 67 mM DTT, 2.14 mM MgCl2, 5.4 mM MgSO4, 4.7×10^−4 M luciferin, 5.3×10^−4 M ATP and 2.7×10^−4 M Acetyl co enzyme A. Luminescence was immediately measured with Berthold Microlumat Plus LB 96V luminometer with an integration of 0.5 sec. Inhibition was calculated using the formula: % inhibition=(1−(read/average max))*100. Average max=signal in absence of compound

HCV replicon Luc Neo ET = assay: Luc Neo ET Replicon assay; assay type: cell-based, Hepatitis C virus; conditions: Hepatitis C virus, 72 h, Table 3, titled RdRp enzyme assay results, EC50_Replicon LucneoET; 72 hours with compound, luciferase
Procedure: Human Hepatoma Huh-7 cell line was maintained in DMEM/HAMF-12 supplemented with 10% SVF, 4 mM glutamine, […] Na pyruvate, 1% penistreptomycine. HCV replicon containing Huh-7 cell lines Huh-9.13 and Luc Neo ET (Reblikon) were maintained in DMEM supplemented with 10% SVF, 2 mM glutamine, and 1×NEAA, 100 U/ml penicillin, and 100 μg/ml streptomycine. Replicon cells were maintained in medium supplemented with 1 mg/ml G418 for replicon Huh-9.13 and 0.5 mg/ml for Luc Neo et replicon unless indicated otherwise. Huh-7 and HCV replicon cell lines were maintained at 37° C. and 5% CO2 in a humidified atmosphere. Cells were dissociated at sub confluence with trypsin EDTA 1×.
Replicon Luc Neo ET is a bicistronic expression constructs (Lohmann et al, 1999, Science 285, 110-113). In brief, the structural genes of the HCV genome were replaced by heterologous sequences; the gene encoding the neomycin phosphotransferase (NPT) and the internal ribosome entry site (IRES) of the encephalomyocarditis virus (EMCV). The bicistronic construct is therefore composed of the following elements: HCV-IRES nucleotides 1-389, the NPT gene, the EMCV-IRES directing translation of downstream HCV sequences from NS2 or NS3 up to the authentic 3′ end of the genome. HCV Polyprotein harbours the cell culture adaptive mutations E1202G, T1280I, K1846T. G418-resistance is only possible with cells containing high amounts of replicon.
Cells were dissociated the day before addition of compounds and seeded in 96 well-plates at a final concentration of 77 777.77 cells.ml^−1.well^−2 in 90 μl final volume of culture medium per well and were maintained at 37° C. and 5% CO2 in a humidified atmosphere for 24 hours. 10 μl of compounds to be tested were added 24 hours after seeding. Final concentration of DMSO was 1%. Cells were incubated in the presence of compounds for 72 hours after which expression of firefly luciferase reporter gene was quantified. Briefly, culture medium was removed and cells were lysed by addition of 100 μl of lysis buffer containing 125 mM Tris Phosphate ph 7.8, 10 mM EDTA, 5 mM DTT, 50% glycerol and 5% Triton. Plates were vortexed 10 min at 1300 rpm. Cell lysat was transferred in OpaqueWhite Assay 96 well Flat Bottom plates. 100 μl of luciferin solution 1× were added to each well. Luciferin solution contained 40 mM Tris Phosphate ph 7.8, 0.2 mM EDTA, 67 mM DTT, 2.14 mM MgCl2, 5.4 mM MgSO4, 4.7×10^−4 M luciferin, 5.3×10^−4 M ATP and 2.7×10^−4 M Acetyl co enzyme A. Luminescence was immediately measured with Berthold Microlumat Plus LB 96V luminometer with an integration of 0.5 sec Inhibition was calculated using the formula:
% inhibition=1−[(RLUsample−RLUbackground)/(RLUsignal−RLUbackground)]

[1] = Table 1, 3D-SCREEN assay results, Huh-7 cells, 24 hours with compound, firefly luciferase reporter
[2] = Table 2, titled Replicon assay results

| Compound | EC50 (HCV NS5B genotype 1b; [1]) [µM] | EC50 (HCV replicon Luc Neo ET) [µM] | melting point [°C] | EC50 (HCV NS5B genotype 1b; [2]) [µM] |
| --- | --- | --- | --- | --- |
| Cc1ccc(C(=O)C2=C(O)C(=O)N(c3ccccn3)C2c2ccc(C(C)(C)C)cc2)cc1 (stereo not shown) [Example 2, 5-(4-tert-butyl-phenyl)-3-hydroxy-4-(4-methyl-benzoyl)-1-pyridin-2-yl-1,5-dihydro-pyrrol-2-one] | 9 | < 10 | – | – |
| Cc1ccc(C(=O)C2=C(O)C(=O)N(c3ccc(C)nn3)C2c2ccc(OC(C)C)cc2)cc1 (stereo not shown) [Example 33, 3-hydroxy-5-(4-isopropoxy-phenyl)-4-(4-methyl-benzoyl)-1-(6-methyl-pyridazin-3-yl)-1,5-dihydro-pyrrol-2-one] | 2 | – | 268 to 272 | – |
| Cc1ccc(C(=O)C2=C(O)C(=O)N(c3ccc(N(C)C)nn3)C2c2ccc(C(C)C)cc2)cc1 (stereo not shown) [Example 37, 1-(6-dimethylamino-pyridazin-3-yl)-3-hydroxy-5-(4-isopropyl-phenyl)-4-(4-methyl-benzoyl)-1,5-dihydro-pyrrol-2-one] | 9 | – | 281 | – |
| Cc1ccc(C(=O)C2=C(O)C(=O)N(c3ccc(C)nn3)C2c2cccc(OC(C)C)c2)cc1 (stereo not shown) [Example 38, 3-hydroxy-5-(3-isopropoxy-phenyl)-4-(4-methyl-benzoyl)-1-(6-methyl-pyridazin-3-yl)-1,5-dihydro-pyrrol-2-one] | 10 | – | 243 to 245 | – |
| Cc1ccc(C(=O)C2=C(O)C(=O)N(c3ccc(C)cn3)C2c2ccc(C(C)C)cc2)cc1 (stereo not shown) [Example 41, 3-hydroxy-5-(4-isopropyl-phenyl)-4-(4-methyl-benzoyl)-1-(5-methyl-pyridin-2-yl)-1,5-dihydro-pyrrol-2-one] | 7 | – | 259 to 261 | – |
| Cc1ccc(N2C(=O)C(O)=C(C(=O)c3ccc(C(C)C)cc3)C2c2ccc(N3CCOCC3)cc2)nn1 (stereo not shown) [Example 58, 3-hydroxy-4-(4-isopropyl-benzoyl)-1-(6-methyl-pyridazin-3-yl)-5-(4-morpholin-4-yl-phenyl)-1,5-dihydro-pyrrol-2-one] | 5 | – | 293 to 294 | – |
| Cc1ccc(N2C(=O)C(O)=C(C(=O)c3ccc(C(C)C)cc3)C2c2ccc(C(C)C)cc2)cn1.Cl (stereo not shown) [Example 66, 5-[3-hydroxy-4-(4-isopropyl-benzoyl)-5-(4-isopropyl-phenyl)-2-oxo-2,5-dihydro-pyrrol-1-yl]-2-methyl-pyridinium; chloride] | 2 | – | 165 | – |
| COCCOc1ccc(C(=O)C2=C(O)C(=O)N(c3ccc(C)nn3)C2c2ccc(OC(F)(F)F)cc2)cc1 (stereo not shown) [Example 85, 3-Hydroxy-4-[4-(2-methoxy-ethoxy)-benzoyl]-1-(6-methyl-pyridazin-3-yl)-5-(4-trifluoromethoxy-phenyl)-1,5-dihydro-pyrrol-2-one] | – | – | 216 to 219 | < 10 |
| CC(=O)OC1=C(C(=O)c2ccc(C(C)C)cc2)C(c2ccc(OC(F)(F)F)cc2)N(c2ccc(C)nn2)C1=O (stereo not shown) [Example 86, Acetic acid 4-(4-isopropyl-benzoyl)-1-(6-methyl-pyridazin-3-yl)-2-oxo-5-(4-trifluoromethoxy-phenyl)-2,5-dihydro-1H-pyrrol-3-yl ester] | – | < 1 | – | < 0.1 |
| Cc1ccc(N2C(=O)C(O)=C(C(=O)c3ccc(C(C)C)cc3)C2c2ccc(Cl)cc2)nn1 (stereo not shown) [Example 87, 5-(4-chloro-phenyl)-3-hydroxy-4-(4-isopropyl-benzoyl)-1-(6-methyl-pyridazin-3-yl)-1,5-dihydro-pyrrol-2-one] | – | – | 258 to 260 | < 10 |
| Cc1ccc(N2C(=O)C(O)=C(C(=O)c3ccc(OC(F)(F)F)cc3)C2c2ccc(C(C)C)cc2)cn1 (stereo not shown) [Example 94, 3-hydroxy-5-(4-isopropyl-phenyl)-1-(6-methyl-pyridin-3-yl)-4-(4-trifluoromethoxy-benzoyl)-1,5-dihydro-pyrrol-2-one] | – | < 10 | – | < 10 |
| CCOc1ccc(C(=O)C2=C(O)C(=O)N(c3ccc(C)nn3)C2c2ccc(OC(F)(F)F)cc2)cc1 (stereo not shown) [Example 101, 4-(4-ethoxy-benzoyl)-3-hydroxy-1-(6-methyl-pyridazin-3-yl)-5-(4-trifluoromethoxy-phenyl)-1,5-dihydro-pyrrol-2-one] | – | – | 255 to 257 | < 10 |
| Cc1ccc(N2C(=O)C(O)=C(C(=O)c3ccc(C(C)C)cc3)C2c2ccc(OC(C)C)cn2)nn1 (stereo not shown) [Example 121, 3-hydroxy-5-(5-isopropoxy-pyridin-2-yl)-4-(4-isopropyl-benzoyl)-1-(6-methyl-pyridazin-3-yl)-1,5-dihydro-pyrrol-2-one] | – | – | 243 to 245 | < 10 |
| Cc1ccc(N2C(=O)C(O)=C(C(=O)c3ccc(C(F)(F)F)nc3)C2c2ccc(OC(F)(F)F)cc2)nn1 (stereo not shown) [Example 126, 3-hydroxy-1-(6-methyl-pyridazin-3-yl)-5-(4-trifluoromethoxy-phenyl)-4-(6-trifluoromethyl-pyridine-3-carbonyl)-1,5-dihydro-pyrrol-2-one] | – | – | 172 | < 10 |
| Cc1ccc(N2C(=O)C(O)=C(C(=O)c3ccc(C(C)C)cc3)C2c2ccc(N(C)C)cc2)nn1 (stereo not shown) [Example 135, 5-(4-dimethylamino-phenyl)-3-hydroxy-4-(4-isopropyl-benzoyl)-1-(6-methyl-pyridazin-3-yl)-1,5-dihydro-pyrrol-2-one] | – | – | 283 to 286 | < 10 |
| Cc1ccc(N2C(=O)C(O)=C(C(=O)c3ccc(C(C)C)cc3)C2c2ccc(Cn3nccn3)cc2)nn1 (stereo not shown) [Example 147, 3-hydroxy-4-(4-isopropyl-benzoyl)-1-(6-methyl-pyridazin-3-yl)-5-(4-[1,2,3]triazol-2-ylmethyl-phenyl)-1,5-dihydro-pyrrol-2-one] | – | – | 285 | < 10 |
| Cc1ccc(N2C(=O)C(O)=C(C(=O)c3ccc(C(C)C)cc3)[C@@H]2c2ccc(C(F)(F)F)cc2)nn1 [Example 190, 3-hydroxy-4-(4-isopropyl-benzoyl)-1-(6-methyl-pyridazin-3-yl)-5(S)-(4-trifluoromethyl-phenyl)-1,5-dihydro-pyrrol-2-one] | – | – | 252 | < 10 |
